Experiment [1] concerns muscarinic acetylcholine receptors. In words: Spontaneous contractile activity of cardiomyocytes differentiated from vascular stroma cells (muscarinic agents). The conditions noted are these: untreated = 100%. It is filed as cell-based, mouse. As to the method: (§1) Cells of the vascular stroma, isolated as described in Example 1.2, are cultured in the methylcellulose-based semi-solid medium as defined above (Example 1.8).
(§2) The cardiomyocytes are also detected by their spontaneous contractile activity in the presence or absence of agonists or antagonists of muscarinic acetylcholine receptors (carbamylcholine and atropine, respectively) or β-adrenergic receptors (isoproterenol and propranolol, respectively).
(§3) More precisely, 1 ml of DMEM medium containing carbamylcholine (2 μM), atropine (10 μM), isoproterenol (10 μM) or propranolol (40 μM) is added to the methyl-cellulose-based medium. After incubation for 5 min, necessary for diffusion of the molecules, the excess buffer is removed and the cell contractions are counted under the microscope for one minute.
(§4) The values correspond to the mean of 3 independent measurements.

For experiment [2], the system named is β-adrenergic receptors. The experiment in a line: Spontaneous contractile activity of cardiomyocytes differentiated from vascular stroma cells (β-adrenergic agents). It counts as cell-based, mouse. As to conditions: untreated = 100%. As to the method:
as §1, §2, §3, §4

For 4 compounds, Contractions results are on record in patent US20040067218A1, “Extramedullary adipose tissue cells and use thereof for regenerating hematopoietic and muscular tissue” (priority 2001, published 2004).

In turn, `CN1[C@@H]2CC[C@H]1C[C@@H](OC(=O)C(CO)c1ccccc1)C2` (stereo partly shown) [Atropine, atropine] registered a Contractions in experiment [1] (atropine (10 μM) added with carbamylcholine (2 μM), mean of 3) of 106%. In experiment [1] (carbamylcholine (2 μM) alone, mean of 3 independent measurements), `C[N+](C)(C)CCOC(N)=O.[Cl-]` [Carbamylcholine, carbamylcholine] returned a Contractions of 53%. Regarding `CC(C)NCC(O)c1ccc(O)c(O)c1` (stereo not shown) [Isoproterenol, isoproterenol], in experiment [2] (isoproterenol (10 μM) alone, mean of 3 independent measurements), the Contractions stood at 160%.

For `CC(C)NCC(O)COc1cccc2ccccc12` (stereo not shown) [Propranolol, propranolol], the Contractions in experiment [2] (propranolol (40 μM) added with isoproterenol (10 μM), mean of 3) came to 100%.
